Source: a melting point compilation (Tetko et al.; mined from patent text by program, amines drawn as free bases though some values may be those of a salt)

| melting point [°C] | SMILES |
| --- | --- |
| 126 | CN1CC(c2ccc(Cl)cc2)C(=O)C(c2cccc(Cl)c2)C1 (configuration not stated) |
| 135 to 138 | CCc1c(C)c(=O)oc2cc(-c3nnc(C)s3)cc(OC)c12 |
| 288 to 290 | CN1C(=O)CCCc2cc(Nc3ncc(Cl)c(Nc4ccc(N5CCOCC5)cc4C(N)=O)n3)ccc21 |
| 255 to 261 | CN(C)C1CN(c2cc3c(cc2F)c(=O)c(C(=O)O)cn3C2CC2)C1 |
| 144 | COC(OC)C(CC(=O)O)C(C)(C)S(=O)(=O)c1ccc(C)cc1 (configuration not stated) |
| 163 to 167 | CC(C)(Oc1ccc(C(=O)CN2CCN(c3ccncc3)CC2)cc1)C(=O)O |
| 153 to 154 | COc1c(F)c(F)c(-c2c3ccccc3c(-c3ccccc3)c3ccccc23)c(F)c1F |
| 191 to 194 | O=C(Cc1ccccc1Cl)Nc1ccc(C(=O)N2Cc3ccccc3Cc3ccccc32)cc1 |
| 179 to 181 | COc1cc(Nc2ncc(-c3ccccc3N(C)C(=O)CN3CCOCC3)o2)ccc1-c1cnco1 |
| 159 to 161 | NC(=O)N1C(=O)C(=C(OC(=O)C=CC(=O)OCCCCc2ccccc2)c2cccs2)c2cc(F)c(Cl)cc21 |
| 135 to 136 | COc1cc(Nc2nccc(NCc3ccccc3)n2)cc(OC)c1OC |
| > 350 | COc1cc(OC)c2c(=O)[nH]c(-c3ccc(N4CCC(=O)CC4)cc3)nc2n1 |
| 73 to 75 | O=[N+]([O-])CS(=O)(=O)c1ccc(CO)cc1 |
| 182 to 183 | O=C1c2ccccc2C(Cc2ccnc(Br)c2)(Cc2ccnc(Br)c2)c2ccccc21 |
| 208 to 210 | N#Cc1ccc(NC(=S)N2CCN(c3cnccn3)CC2)cc1 |
| 180 to 182 | CCn1cc(O)c(=O)c2ccccc21 |
| 142 to 151 | CCCN(CCC)c1nccc2ccc(C(=O)N[C@@H](Cc3cc(F)cc(F)c3)[C@H](O)CNCc3cccc(CC)c3)cc12 |
| 110 to 112 | CC(=O)Oc1cnccc1CCCOc1cccnc1Oc1cccc(Br)c1 |
| 105 to 108 | COc1ccc(C(CC2=NN(C)C(=O)C2)c2ccccc2)cc1OC1CCCC1 (configuration not stated) |
| 350 to 351 | O=C(O)c1ccc2c(c1)C(=O)c1cccc(C(=O)O)c1S2(=O)=O |
| 206 to 207 | CC1=C(C(=O)OC(C)(C)C)C(c2ccc(Br)cc2)C(C(=O)OC(C)(C)C)=C(C)N1 |
| 229 to 230 | Cc1nc2c(OCc3c(Cl)ccc(N(C)C(=O)CN4C(=O)c5ccccc5C4=O)c3Cl)cccn2c1Br |
| 204 to 206 | COc1cc(C)nc(NC(=O)NS(=O)(=O)c2ccsc2S(C)(=O)=O)n1 |

| melting point [°C] | SMILES |
| --- | --- |
| 193 to 195 | O=C(CC(c1ccccc1)(c1ccccc1)c1ccccc1)Nc1ccc(N2CCNCC2)cc1 |
| 227 | CC(=O)N[C@@H]1CCCC[C@H]1Nc1nc(Nc2ccc3c(c2)C(C)(C)CCC(=O)N3)ncc1Cl |
| 186 to 188 | COc1ccc2c3c(c(=O)oc2c1)CN(Cc1ccnc2ccccc12)CC3 |
| 286 to 287 | CCCc1c[nH]c(=O)[nH]c1=O |
| 186 to 188 | COc1ccc2c(c1OCc1ccccc1)CC(C(=O)O)N(C(=O)C(c1ccc(Cl)cc1)c1ccc(Cl)cc1)C2 (racemic) |
| 92.5 to 93.5 | CCOC(=O)c1ccc(-c2ccc3c(c2)OCO3)cc1 |
| 135 to 138 | CCCCc1oc2ccccc2c1Cc1ccc(OS(=O)(=O)c2ccc(C(=O)O)c(O)c2)cc1 |
| 221 to 222 | O=C(Nc1ccc(Cl)cc1)C1=C(C(=O)Nc2cc(OC3CCCC3)c(Cl)cc2F)CCCC1 |
| 190 to 191 | COc1cc(C2C3=C(COC3=O)Nc3ccc4nc(C)sc4c32)ccc1[N+](=O)[O-] (configuration not stated) |
| 174 to 175 | O=C1Nc2cc([N+](=O)[O-])ccc2OC1CCO (configuration not stated) |
| 198 | O=C([C@H](O)CS(=O)(=O)c1ccc2cc(Cl)ccc2c1)N1CCN(N2CCCCC2=O)CC1 |
| 186 | N#Cc1cc2c(cc1C(F)(F)F)[nH]c(=O)c(=O)n2OC(=O)c1ccccc1 |
| 159 | CCOC(=O)C1=C(N)OC(C)=C(C(=O)OC)C1c1cc([N+](=O)[O-])ccc1Cl (configuration not stated) |
| 116 to 120 | CC1CCN(c2cc3nc(C(C)(C)C)sc3cc2[N+](=O)[O-])CC1 |
| 194 | Cc1c(-c2ncc([N+](=O)[O-])n2C)cnn1-c1ccccc1 |
| 173 to 174 | COc1nc(C)c(C(C)=O)cc1NC(=O)N1CCN(c2cccc(C)c2C)CC1 |
| 93 to 95 | COCCCNc1c([N+](=O)[O-])cnc2ccccc12 |
| 125 to 130 | CC=Cc1ccc2c(c1)C(=O)N(c1ccc(C(C)C(=O)OC(C)(C)C)cc1)C2 (configuration not stated) |
| 94 to 95 | CCONS(=O)(=O)c1ccc(C)cc1 |
| 150 | CC(C#Cc1ccc(Oc2cncc(Cl)c2)o1)N(O)C(N)=O (configuration not stated) |
| 109 to 110 | O=C1c2ccccc2C=C(Cl)Cc2ccccc21 |
| 202 to 204 | Cc1c(F)c(F)c(C(=O)NC2CCCCC2C)c(F)c1F (configuration not stated) |
| 165 to 168 | O=C1NC(=O)C(c2cn3c4c(cccc24)C(O)CC3)=C1c1c[nH]c2ccccc12 (configuration not stated) |

| melting point [°C] | SMILES |
| --- | --- |
| 68 | CN1CCC(OC2c3cccc(OCc4ccccc4)c3CCn3cc(-c4ccccc4)nc32)CC1 (configuration not stated) |
| 115 to 117 | CC(C)(C)C(=O)SC[C@H](NC(=O)C(C)(C)S)C(=O)O |
| 178 to 179 | CC[C@H](C)[C@H](NC(=O)OC(C)(C)C)C(=O)N[C@H](C(=O)N[C@@H](CC1CCCCC1)[C@@H](O)[C@@H](O)CC(C)C)[C@@H](C)CC |
| 187 to 188 | CC(=O)N=c1sc(C)cn1CC(=O)c1cccs1 |
| 83 to 85 | O=C(NCCCCCCOC(=O)N1CCC2(CCCC2)CC1)OC1CCN(C(=O)Oc2ccc(Oc3ccccc3)cc2)CC1 |
| 182 | CCOC(=O)N1CCC(=C2c3ccccc3CCn3c(C(=O)O)cnc32)CC1 |
| 223 to 225 | O=C(Nc1ccc(-n2nc(C(F)(F)F)cc2C2CC2)nc1)c1c(Cl)cncc1Cl |
| 77 to 80 | CC(=O)N[C@H]1C=C[C@@H](CO)C1 |
| 120 to 123 | Cc1ccnc(C(O)c2ccc(N)cc2C(F)(F)F)c1 (configuration not stated) |
| 161 to 162 | O=C(c1ccc(F)cc1)c1ccc2n1CCCC2C(=O)O (configuration not stated) |
| 132 | COC1=C(c2cccc(C(F)(F)F)c2)C(CCC(=O)O)OC1=O (configuration not stated) |
| 219 to 221 | CN(C)c1ccc(-c2cc(-c3ccnc4c(C(=O)c5cccs5)cnn34)ccc2F)cc1 |
| 238 to 239 | CC(C)(C)NS(=O)(=O)c1cccc(NC(=O)c2cnn3c(C4CC4)cc(-c4ccc(Cl)cc4)nc23)c1 |
| 96.5 to 99.1 | CCOC(=O)CCc1cc(-c2ccccc2)n(-c2ccc(S(C)(=O)=O)cc2)n1 |
| 270 to 273 | FC(F)c1nc2ccccc2n1-c1nc(Nc2cnc3ccccc3c2)nc(N2CCOCC2)n1 |
| 159 to 164 | O=C(O)C1=Cc2cc(C(=O)Cc3ccccc3)ccc2OC1C(F)(F)F (configuration not stated) |
| 258 to 260 | Cc1c(F)c(N2CCN(C=O)C(C)C2)cc2c1c(=O)c(C=O)cn2C1CC1 (configuration not stated) |
| 103 to 105 | COc1cc(OC)c(CSC(C)(C)CC(=O)O)c(OC)c1 |
| 87 | CCN(CC)C(=O)CCc1nc(-c2cccc(OC)c2)nc2ccccc12 |
| 62 to 63 | CCOc1ccc(CCCCC=CC(=O)O)cc1 |
| 183 to 185 | Oc1ccc(C2=C(c3ccccc3)CCCc3cc(OC4CCCCO4)ccc32)cc1 (configuration not stated) |
| 82 to 85 | CC=CCNc1ccc(Oc2nc(OC)cc(OC)n2)c(C(=O)OC)n1 |
| 102 | O=C(O)C1Oc2cc3onc(-c4ccccc4)c3c(Cl)c2O1 (configuration not stated) |

| melting point [°C] | SMILES |
| --- | --- |
| 132 to 134 | c1ccc2cc(OC3CCC4(CCNCC4)CC3)ccc2c1 |
| 178 | Cc1ncn(Nc2ccccc2)c1C |
| 154 | Cc1cccc(-n2nc(C)c3c(Cl)c4ccccc4nc32)n1 |
| 155 | COc1cc(Nc2nccc(-c3cccnc3)n2)cc(OC)c1OC |
| 183 to 185 | CC1(C)Oc2ccc(C#N)cc2[C@@H](NC(=S)Nc2ccccc2)[C@@H]1O (relative stereo) |
| 205 to 207 | OC(CCCn1ccnc1)c1ccccc1 (configuration not stated) |
| 145 to 147 | COc1cc(C)ccc1S(=O)(=O)NC(=O)C(c1cc(OC)c2c(c1)OCO2)c1cn(C)c2cc(CO)ccc12 (configuration not stated) |
| 98 | Cc1coc(NC(=O)CCCCl)n1 |
| 62 to 64 | CC(C)(Sc1ccccc1)C(=O)O |
| 125 to 127 | CC(C(=S)c1ccc(NC=O)nc1)S(C)=O (configuration not stated) |
| 102 to 103 | CN1C[C@@H](C(=O)OC(C)(C)C)N(C(=O)OCc2ccccc2)C1=O |
| 89 to 91 | S=C(SSC(=S)c1ccccc1)c1ccccc1 |
| 144 to 146 | Cc1cccc(-c2nscc2C(=O)O)c1 |
| 140 to 141 | Cc1cc(-c2ccc(S(N)(=O)=O)cc2)n(-c2ccc(F)cc2F)c1 |
| 72 | O=C(OCc1ccccc1)C1Cc2sccc2C(=O)N1Cc1ccccc1 (configuration not stated) |
| 262 to 263 | COc1ccc2cc(C(=O)O)oc(=O)c2c1OC |
| 69.5 to 71 | CCSCC(=C1NCCCS1)[N+](=O)[O-] |
| 214 | O=C(Nc1ccccc1S(=O)(=O)c1ccccc1)N[C@@H](Cc1ccc(NC(=O)c2c(Cl)cncc2Cl)cc1)C(=O)O |
| 215 to 217 | CC(C)CC(CO)NC(=O)C(Cc1c[nH]cn1)NC(=O)C(Cc1cccc2ccccc12)NC(=O)COc1cccc2ccccc12 (configuration not stated) |
| 215 to 217 | O=C(O)CCc1cccc(-c2nc(=O)c3ccc(F)cc3s2)n1 |

| SMILES | melting point [°C] |
| --- | --- |
| CC1CN(c2ccc([N+](=O)[O-])cc2)CC(C)N1 (configuration not stated) | 124 to 125 |
| CN1CCCN=C1C(Br)(Br)[N+](=O)[O-] | 106 to 107 |
| Cc1ccc(C)c([PH](=O)O)c1 | 73 to 80 |
| CC(C)CCN1C(=O)C(NC(=O)Oc2ccccc2)C(=O)N(c2ccccc2)c2ccc(Cl)cc21 (configuration not stated) | 190 to 195 |
| O=C1C=C(NC(=O)C(=O)c2cn(Cc3ccc(F)cc3)c3cc4c(cc23)OCO4)CO1 | 210 to 212 |
| COc1ccc(CCN(C)C(C)(C)CO)cc1 | 40 |
| BrCc1nc2cc(Br)ccc2s1 | 107 |
| CCN1c2ncccc2C(NC)=Nc2c(C)cc(C)nc21 | 128 to 130 |
